Experimental data from patent publication US8003604B2, “Hepatitis C virus inhibitors” (priority 2006, dated 2011).

Assays:
[1] = molecular target: T1, HCV NS3/4A protease complex (Hepatitis C virus genotype 1a, UniProt P27958, C1454S/C1711G); experiment: FRET peptide assay to monitor HCV NS3/4A proteolytic activity; type: biochemical
T1 construct: DNA encoding the recombinant HCV NS3/4A protease complex (amino acids 1027 to 1711) for these strains were manipulated; inferred from pET21b vector and Ni-NTA purification; made in house; host or cells: Escherichia coli BL21 (DE3), pET21b vector
From the text: HCV NS3 protease complexes, derived from the BMS strain, H77 strain or J4L6S strain, were generated, as described below. These purified recombinant proteins were generated for use in a homogeneous assay (see below) to provide an indication of how effective compounds of the present disclosure would be in inhibiting HCV NS3 proteolytic activity.
Serum from an HCV-infected patient was obtained from Dr. T. Wright, San Francisco Hospital. An engineered full-length cDNA (compliment deoxyribonucleic acid) template of the HCV genome (BMS strain) was constructed from DNA fragments obtained by reverse transcription-PCR (RT-PCR) of serum RNA (ribonucleic acid) and using primers selected on the basis of homology between other genotype 1a strains. From the determination of the entire genome sequence, a genotype 1a was assigned to the HCV isolate according to the classification of Simmonds et al. (See P Simmonds, K A Rose, S Graham, S W Chan, F McOmish, B C Dow, E A Follett, P L Yap and H Marsden, J. Clin. Microbiol., 31(6), 1493-1503 (1993)). […]

[2] = system: HCV replicon in HUH-7 cells; experiment: HCV replicon FRET assay (confirmed in replicon luciferase reporter assay); type: cell-based; conditions: Hepatitis C virus, 96 h; HUH-7 cells constitutively expressing HCV 1b replicon, 4 days incubation
From the text: An HCV replicon whole cell system was established as described by Lohmann V, Korner F, Koch J, Herian U, Theilmann L, Bartenschlager R., Science 285(5424):110-3 (1999). This system enabled us to evaluate the effects of our HCV Protease compounds on HCV RNA replication. Briefly, using the HCV strain 1b sequence described in the Lohmann paper (Accession number: AJ238799), an HCV cDNA was synthesized by Operon Technologies, Inc. (Alameda, Calif.), and the full-length replicon was then assembled in plasmid pGem9zf(+) (Promega, Madison, Wis.) using standard molecular biology techniques. […]
The HCV replicon FRET assay was developed to monitor the inhibitory effects of compounds described in the disclosure on HCV viral replication. […] After 4 days, cells were first assessed for cytotoxicity using alamar Blue (Trek Diagnotstic Systems) for a CC50 reading. The toxicity of compound (CC50) was determined by adding 1/10th volume of alamar Blue to the media incubating the cells. After 4 h, the fluorescence signal from each well was read, with an excitation wavelength at 530 nm and an emission wavelength of 580 nm, using the Cytofluor Series 4000 (Perspective Biosystems). […]

T1 sequence (P27958 1027-1711 C1454S/C1711G, one chain of several): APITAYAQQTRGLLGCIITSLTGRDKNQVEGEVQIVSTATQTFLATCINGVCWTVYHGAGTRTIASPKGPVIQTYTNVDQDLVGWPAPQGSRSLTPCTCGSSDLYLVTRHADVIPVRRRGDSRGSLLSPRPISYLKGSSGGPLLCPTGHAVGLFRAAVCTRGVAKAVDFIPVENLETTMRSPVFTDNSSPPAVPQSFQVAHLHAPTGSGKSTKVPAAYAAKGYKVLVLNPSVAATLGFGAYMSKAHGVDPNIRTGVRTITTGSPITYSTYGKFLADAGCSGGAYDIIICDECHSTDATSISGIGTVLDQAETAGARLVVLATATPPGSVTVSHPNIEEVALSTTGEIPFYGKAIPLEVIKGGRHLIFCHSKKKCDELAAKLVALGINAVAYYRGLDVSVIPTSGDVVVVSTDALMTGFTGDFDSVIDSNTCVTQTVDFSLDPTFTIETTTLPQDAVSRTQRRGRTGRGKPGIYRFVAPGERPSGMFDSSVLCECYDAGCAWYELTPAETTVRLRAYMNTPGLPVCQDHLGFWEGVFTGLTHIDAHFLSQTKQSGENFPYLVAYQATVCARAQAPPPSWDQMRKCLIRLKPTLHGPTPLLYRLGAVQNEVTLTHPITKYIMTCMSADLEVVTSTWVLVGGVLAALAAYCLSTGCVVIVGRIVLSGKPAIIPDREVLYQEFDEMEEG

With CC(C)(C)OC(=O)N[C@H]1CCCCC/C=C\C2C[C@@]2(C(=O)NS(=O)(=O)C2CC2)NC(=O)[C@@H]2C[C@@H](c3ccccc3)CN2C1=O (stereo partly shown) [Compound 1] the IC50 [1] was 18 nM and the EC50 [2] was 639 nM.
Work on CC(C)(C)OC(=O)N[C@H]1CCCCC/C=C\[C@@H]2C[C@@]2(C(=O)NS(=O)(=O)C2CC2)NC[C@@H]2C[C@@](O)(c3ccccc3)CN2C1=O [Compound 2] yielded an IC50 [1] of 9 nM and an EC50 [2] of 389 nM.
